We go through eleven compounds from patent publication US20250195513A1, “DEGRADATION OF IRAK4 BY CONJUGATION OF IRAK4 INHIBITORS WITH E3 LIGASE LIGAND AND METHODS OF USE” (BeiGene, Ltd., priority 2022, published 2025).

Common to all, as to type: cell-based
For assay [1], the target named is T1, IRAK4 (Homo sapiens, UniProt Q9NWZ3).
T1 construct: endogenous in cells; host or cells: Karpas299
T1 sequence (Q9NWZ3 1-460): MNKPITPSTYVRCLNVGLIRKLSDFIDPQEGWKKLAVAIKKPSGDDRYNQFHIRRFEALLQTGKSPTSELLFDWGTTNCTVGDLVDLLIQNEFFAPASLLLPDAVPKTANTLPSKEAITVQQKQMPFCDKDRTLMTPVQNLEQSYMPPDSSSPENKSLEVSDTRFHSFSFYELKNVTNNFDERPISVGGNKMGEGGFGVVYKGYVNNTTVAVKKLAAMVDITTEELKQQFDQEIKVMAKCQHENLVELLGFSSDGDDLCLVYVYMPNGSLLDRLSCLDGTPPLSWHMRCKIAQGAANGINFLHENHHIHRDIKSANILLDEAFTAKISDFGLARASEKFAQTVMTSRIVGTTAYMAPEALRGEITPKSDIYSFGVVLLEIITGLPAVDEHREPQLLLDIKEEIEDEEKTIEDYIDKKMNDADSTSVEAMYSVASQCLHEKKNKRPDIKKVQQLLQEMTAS
In words: IRAK4 Degradation Assay (Karpas299, HTRF/TR-FRET). The settings on record: Karpas-299 cells; for Dmax: maximum percentage of degradation. In a few lines:
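Karpas299 cells at 0.2 million per well were exposed to serially diluted compounds for 24 h or 5 h, then lysed. IRAK4 remaining in lysates was quantified by HTRF (665/620 nm) after overnight antibody incubation at room temperature. Percent degradation was fitted to a four-parameter curve to give IC50 (DC50).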
In general terms: Time-resolved FRET reads energy transfer from a long-lived donor to a nearby acceptor.

For assay [2], the system named is TNF-α production in THP-1 cells. The assay can be described thus: TNF-α Production Assay in THP-1 Cells (LPS stimulated). Particulars: Homo sapiens, THP-1, 24 h; for Emax: maximum inhibition, read-out: TNF-α (THP-1) 24 h IMax. Here is the method:
THP-1 cells maintained in RPMI 1640 medium (Thermo Scientific) supplemented with 10% FBS (Thermo Scientific), 100 units/mL penicillin and 0.1 mg/mL streptomycin (Thermo Scientific) were seeded into 96-well plates at the density of 0.2 million cells per well and then treated with compounds for 24 h. Lipopolysaccharide was subsequently added at the final concentration of 1 μg/mL for 24 h. Culture supernatant was collected for measurement of TNF-α concentration by a TR-FRET-based method (Degorce, François, et al. Current chemical genomics. 2009, 3: 22) as described by the manufacturer manual (Cisbio). FRET signals were measured using a PHERAstar FSX reader (BMG Labtech).

The target in assay [3] is T1, IRAK4. The assay can be described thus: IRAK4 Degradation Assay with Human Serum (Karpas299, HTRF/TR-FRET). The settings on record: Karpas-299 in human serum, 24 hrs treatment; for DC50: read-out: IRAK4 degradtion with human serum assay DC50; for Dmax: read-out: IRAK4 degradtion with human serum assay Dmax (%). In a few lines:
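Karpas299 cells in human AB serum (0.2 million/well) treated with serial compound dilutions for 24 h. After lysis, IRAK4 quantified by HTRF (overnight antibody incubation at room temperature, 665/620 nm read). Degradation percentage fitted to four-parameter curve to give DC50.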

Where [4] appears, read: 5 h treatment, read-out: IRAK4 in Karpas-299 (5 h) Dmax (%).
Setting [5] is: 5 h treatment, read-out: IRAK4 in Karpas-299 (5 h) DC50.
The mark [6] stands for this setting: 24 h treatment, read-out: IRAK4 in Karpas-299 (24 h) Dmax (%).
Setting [7] is: 24 h treatment, read-out: IRAK4 in Karpas-299 (24 h) DC50.

Regarding `COc1cc2nn([C@H]3CC[C@H](CN4CCN(C(=O)[C@@H]5CCN(c6ccc(N7CCC(=O)NC7=O)cc6)C5)CC4)CC3)cc2cc1NC(=O)c1cccn(C2CC2)c1=O` [Example 33, 1-cyclopropyl-N-(2-((1R,4r)-4-((4-((R)-1-(4-(2,4-dioxotetrahydropyrimidin-1(2H)-yl)phenyl)pyrrolidine-3-carbonyl)piperazin-1-yl)methyl)cyclohexyl)-6-methoxy-2H-indazol-5-yl)-2-oxo-1,2-dihydropyridine-3-carboxamide], the Dmax – broadly, the greatest extent of degradation seen – is 81% in assay [1] (setting [4]) and 99% in assay [1] (setting [6]). Further, the DC50 – broadly, the midpoint of the concentration-degradation curve – was determined as 33 nM in assay [1] (setting [5]) and 3.1 nM in assay [1] (setting [7]). Further, in assay [2], the IC50 (as a rule, the concentration that inhibits the measured activity by half) amounted to 101 nM. Also, the Emax in assay [2] was determined as 53%.

As for `CC(C)(O)c1cc2nn([C@H]3CC[C@H](N4CCN(C(=O)C5CN(c6cc(F)c(N7CCC(=O)NC7=O)c(F)c6)C5)CC4)CC3)cc2cc1NC(=O)c1cccc(C(F)(F)F)n1` [Example 114, N-(2-((1r,4r)-4-(4-(1-(4-(2,4-dioxotetrahydropyrimidin-1(2H)-yl)-3,5-difluorophenyl)azetidine-3-carbonyl)piperazin-1-yl)cyclohexyl)-6-(2-hydroxypropan-2-yl)-2H-indazol-5-yl)-6-(trifluoromethyl)picolinamide], the Dmax in assay [1] (setting [6]) was 96%. For the same compound, the half-maximal degradation concentration (DC50) in assay [1] (setting [7]) was 1.3 nM. In assay [2], the IC50 amounted to 53 nM and the Emax stood at 78%.

With `[2H]C([2H])([2H])Oc1cc2nn([C@H]3CC[C@H](N4CCN(C(=O)C5CN(c6cc(F)c(N7CCC(=O)NC7=O)c(F)c6)C5)CC4)CC3)cc2cc1NC(=O)c1cccc(C(F)(F)F)n1` [Example 173, N-(2-((1r,4r)-4-(4-(1-(4-(2,4-dioxotetrahydropyrimidin-1(2H)-yl)-3,5-difluorophenyl)azetidine-3-carbonyl)piperazin-1-yl)cyclohexyl)-6-(methoxy-d3)-2H-indazol-5-yl)-6-(trifluoromethyl)picolinamide], the Dmax in assay [1] (setting [4]) was determined as 99%; in assay [1] (setting [6]), 98%. The results for the DC50 in assay [1] (setting [5]) and in assay [1] (setting [7]) were 17 nM and 1.8 nM, respectively. For the same compound, the IC50 in assay [2] was 69 nM. Also, in assay [2], the Emax was 79%.

In the case of `COc1cc2nn([C@H]3CC[C@H](N4CCN(C(=O)C5CN(c6cc(F)c(N7CCC(=O)NC7=O)c(F)c6)C5)CC4)CC3)cc2cc1NC(=O)c1cccc(C(F)(F)F)n1` [Example 176, N-(2-((1r,4r)-4-(4-(1-(4-(2,4-dioxotetrahydropyrimidin-1(2H)-yl)-3,5-difluorophenyl)azetidine-3-carbonyl)piperazin-1-yl)cyclohexyl)-6-methoxy-2H-indazol-5-yl)-6-(trifluoromethyl)picolinamide], the Dmax in assay [1] (setting [4]) amounted to 96%; in assay [1] (setting [6]), 97%. The DC50 in assay [1] (setting [5]) was 12 nM; in assay [1] (setting [7]), 1.6 nM. The compound further returned an IC50 in assay [2] of 120 nM. Also, in assay [2], the Emax is 78%.

`CC(C)(O)c1cc2nn([C@H]3CC[C@H](N4CCN(C(=O)C5CCN(c6ccc7c(c6)C(=O)N(C6CCC(=O)NC6=O)C7=O)CC5)CC4)CC3)cc2cc1NC(=O)c1ccc2cc(C#N)cnn12` (some centres unmarked) [Example 429, 3-cyano-N-(2-((1r,4r)-4-(4-(1-(2-(2,6-dioxopiperidin-3-yl)-1,3-dioxoisoindolin-5-yl)piperidine-4-carbonyl)piperazin-1-yl)cyclohexyl)-6-(2-hydroxypropan-2-yl)-2H-indazol-5-yl)pyrrolo[1,2-b]pyridazine-7-carboxamide]: the Dmax in assay [1] (setting [6]) worked out at 97%; in assay [3], 94%. Besides, the DC50 in assay [1] (setting [7]) was 1 nM; in assay [3], 32 nM.

As to `CC(C)(O)c1cc2nn([C@H]3CC[C@H](N4CCN(C5CCN(c6ccc7c(c6)C(=O)N(C6CCC(=O)NC6=O)C7=O)CC5)CC4)CC3)cc2cc1NC(=O)c1ccc2cc(C#N)cnn12` (some centres unmarked) [Example 430, 3-cyano-N-(2-((1r,4r)-4-(4-(1-(2-(2,6-dioxopiperidin-3-yl)-1,3-dioxoisoindolin-5-yl)piperidin-4-yl)piperazin-1-yl)cyclohexyl)-6-(2-hydroxypropan-2-yl)-2H-indazol-5-yl)pyrrolo[1,2-b]pyridazine 7-carboxamide], the Dmax in assay [1] (setting [6]) stood at 97%; in assay [3] it was 98%. Also, the DC50 was 1.4 nM in assay [1] (setting [7]) and 15 nM in assay [3].

Regarding `CC(C)(O)c1cc2nn([C@H]3CC[C@H](N4CCN(C[C@@H]5CCN(c6ccc7c(c6)C(=O)N(C6CCC(=O)NC6=O)C7=O)C5)CC4)CC3)cc2cc1NC(=O)c1ccc2cc(C#N)cnn12` (stereo partly drawn) [Example 431, 3-cyano-N-(2-((1S,4r)-4-(4-(((3S)-1-(2-(2,6-dioxopiperidin-3-yl)-1,3-dioxoisoindolin-5-yl)pyrrolidin-3-yl)methyl)piperazin-1-yl)cyclohexyl)-6-(2-hydroxypropan-2-yl)-2H-indazol-5-yl)pyrrolo[1,2-b]pyridazine-7-carboxamide], the Dmax in assay [1] (setting [6]) is 94%; in assay [3] it was 95%. In addition, the DC50 was determined as 1.6 nM in assay [1] (setting [7]) and 8.7 nM in assay [3].

For the compound `CC(C)(O)c1cc2nn([C@H]3CC[C@H](N4CCN(C[C@H]5CCN(c6ccc7c(c6)C(=O)N(C6CCC(=O)NC6=O)C7=O)C5)CC4)CC3)cc2cc1NC(=O)c1ccc2cc(C#N)cnn12` (stereo partly drawn) [Example 432, 3-cyano-N-(2-((1R,4r)-4-(4-(((3R)-1-(2-(2,6-dioxopiperidin-3-yl)-1,3-dioxoisoindolin-5-yl)pyrrolidin-3-yl)methyl)piperazin-1-yl)cyclohexyl)-6-(2-hydroxypropan-2-yl)-2H-indazol-5-yl)pyrrolo[1,2-b]pyridazine-7-carboxamide], the figures for the Dmax in assay [1] (setting [6]) and in assay [3] were 95% and 92%, respectively. Further, the DC50 in assay [1] (setting [7]) amounted to 1.9 nM; in assay [3] it was 14 nM.

As to `CC(C)(O)c1cc2nn([C@H]3CC[C@H](CN4CCN(C5CCN(c6ccc7c(c6)C(=O)N(C6CCC(=O)NC6=O)C7=O)CC5)CC4)CC3)cc2cc1NC(=O)c1ccc2cc(C#N)cnn12` (some centres unmarked) [Example 436, 3-cyano-N-(2-((1r,4r)-4-((4-(1-(2-(2,6-dioxopiperidin-3-yl)-1,3-dioxoisoindolin-5-yl)piperidin-4-yl)piperazin-1-yl)methyl)cyclohexyl)-6-(2-hydroxypropan-2-yl)-2H-indazol-5-yl)pyrrolo[1,2-b]pyridazine-7-carboxamide], the Dmax in assay [1] (setting [6]) came out at 96%; in assay [3] it was 85%. Moreover, the results for the DC50 in assay [1] (setting [7]) and in assay [3] were 10.8 nM and 14 nM, respectively.

As for `CC(C)(O)c1cc2nn([C@H]3CC[C@H](N4CCN(CCNc5cccc6c5C(=O)N(C5CCC(=O)NC5=O)C6=O)CC4)CC3)cc2cc1NC(=O)c1ccc2cc(C#N)cnn12` (some centres unmarked) [Example 437, 3-cyano-N-(2-((1r,4r)-4-(4-(2-((2-(2,6-dioxopiperidin-3-yl)-1,3-dioxoisoindolin-4-yl)amino)ethyl)piperazin-1-yl)cyclohexyl)-6-(2-hydroxypropan-2-yl)-2H-indazol-5-yl)pyrrolo[1,2-b]pyridazine-7-carboxamide], the results for the Dmax in assay [1] (setting [6]) and in assay [3] were 99% and 101%, respectively. Besides, the DC50 came out at 4.7 nM in assay [1] (setting [7]) and 9.4 nM in assay [3].

Turning to `CC(C)(O)c1cc2nn([C@H]3CC[C@H](CN4CCN(CCNc5cccc6c5C(=O)N(C5CCC(=O)NC5=O)C6=O)CC4)CC3)cc2cc1NC(=O)c1ccc2cc(C#N)cnn12` (some centres unmarked) [Example 438, 3-cyano-N-(2-((1r,4r)-4-((4-(2-((2-(2,6-dioxopiperidin-3-yl)-1,3-dioxoisoindolin-4-yl)amino)ethyl)piperazin-1-yl)methyl)cyclohexyl)-6-(2-hydroxypropan-2-yl)-2H-indazol-5-yl)pyrrolo[1,2-b]pyridazine-7-carboxamide], the Dmax in assay [1] (setting [6]) and in assay [3] was 96% each time. The DC50 worked out at 2.5 nM in assay [1] (setting [7]) and 17 nM in assay [3].
